Measurements from ChEMBL document CHEMBL1157539, “Thousands of chemical starting points for antimalarial lead identification” (Nature, 2010).

system: Plasmodium falciparum; test: GSK_TCMDC: Inhibition of Plasmodium falciparum 3D7 in whole erythrocytes, using parasite LDH activity as an index of growth.; assay type: functional, organism-based; conditions: Plasmodium falciparum, 3D7

Compound | XC50
Cc1cc(N/N=C/c2ccccc2[N+](=O)[O-])c2cccc(C)c2n1 | 548 nM
CCN(CC)CCN(Cc1ccc(-c2ccc(C#N)cc2)cc1)C(=O)Cn1c(CCc2cccc(F)c2F)nc(=O)c2ccccc21 | 5.97 nM
Cc1c(CN2CCCCC2)cccc1OCCCNc1nc(NCCc2ccc(O)cc2)nc(N2CCNCC2)n1 | 223 nM
Cc1nnc2c(NC(=O)/C=C/c3ccc(OC(F)(F)F)cc3)cc3cc(Cl)ccc3n12 | 170 nM
CCOc1cc(C=Cc2nc(O)c3ccccc3n2)cc(Cl)c1O | 1180 nM
O=C(Nc1cc(C(F)(F)F)cc(C(F)(F)F)c1)N1CCC(CN2CCC(c3c[nH]c4ccccc34)CC2)CC1 | 187 nM
Brc1cccc(Nc2nccc(Nc3ccc(Oc4ccccc4)cc3)n2)c1 | 1010 nM
CCCc1cn2c3c(cc(C(=O)N[C@@H](Cc4ccccc4)[C@H](O)CNC4CCCCC4)cc13)N(CC)S(=O)(=O)CC2 | 80.6 nM
COc1cc(NCCCNC(=O)c2ccc(Cl)c(Cl)c2)nc2ccccc12 | 137 nM
Cc1[nH]c(C)c(-c2ccc(OCc3ccc(F)cc3)cc2)c(=O)c1Br | 77.2 nM
CCCCC(=O)Nc1ccc(Nc2nc(C)cc(N3CCCC3)n2)cc1 | 1060 nM
CCOc1ccc(OCCCON2C(=N)N=C(N)NC2(C)C)cc1 | 3.2 nM
CSc1nc2nc(C)c(Cc3cccc(C(F)(F)F)c3)c(C)n2n1 | 193 nM
CCC(C)(C)c1ccc(OCCCC(=O)Nc2ccc(Cl)c([N+](=O)[O-])c2)c(C(C)(C)CC)c1 | 969 nM
CC(=O)NC1=NC(C)(C)N(OCc2ccc(Cl)c(Cl)c2)C(NC(C)=O)=N1 | 3.2 nM
COc1nc2c(CCN3CCC(NCc4ccc5c(c4)NCCO5)CC3)c(Cl)cnc2cc1F | 179 nM
COc1cc(NC(=O)c2cc([N+](=O)[O-])ccc2NC(=O)CNC2CCCC(C)C2C)cc(OC)c1 (stereo not drawn) | 1040 nM
O=C(NCCCCCN1CCC(c2c[nH]c3ccccc23)CC1)Nc1ccc(I)c(Cl)c1 | 969 nM
Cc1ccccc1N1CCN(c2ccc(C(=O)NC(C)C)cn2)CC1 | 901 nM
CN1CCN(CCCN(Cc2cccc(-c3cccc(CNCc4ccc5c(c4)OCO5)c3)c2)C(=O)CCC2CCCC2)CC1 | 952 nM
O=C(Nc1ccc(Cl)c(C(F)(F)F)c1)c1ccc(Cl)c([N+](=O)[O-])c1 | 1120 nM
CCOC(=O)[C@H](Cc1cc([N+](=O)[O-])c(Oc2ccc(OC)c(Cc3ccc(OC)c(C(C)C)c3)c2)c([N+](=O)[O-])c1)NC(=O)C(F)(F)F | 984 nM
COc1ccc(CNCc2ccc(F)cc2)cc1-c1ccc(S(=O)(=O)NCCN2CCCC2)s1 | 706 nM
Cc1cccc2nc(-c3ccc(-c4cccc(CN5CCCC5CN)c4)s3)[nH]c12 (stereo not drawn) | 867 nM

Compound | XC50
COc1cc2nc(NCCc3ccccc3)nc(NCCCc3ccccc3)c2cc1OC | 158 nM
CN(CC(=O)Nc1cc(C(F)(F)F)ccc1-n1cncn1)Cc1nc2ccccc2s1 | 1410 nM
Cc1cccc2nc(-c3ccc(-c4ccc(CNCC5CCCO5)cc4)cc3)[nH]c12 (stereo not drawn) | 678 nM
CCCCNC(=O)[C@H](CC1CCCCC1)NC(=O)c1ccc(O)c(-c2ccc(OC)cc2)c1 | 920 nM
CNCCNCc1cccc(-c2ccc(-c3nc4ccccc4[nH]3)cc2)c1 | 743 nM
CC[C@H](NC(=O)c1c(CN2CCC(N3CCCCC3)CC2)c(-c2ccccc2)nc2c(Cl)c(O)ccc12)c1ccccc1 | 734 nM
Oc1cc(Nc2ccnc3cc(I)ccc23)ccc1F | 740 nM
CCOC(=O)c1ccc(NC(=O)Nc2ccc(-c3ccc(-c4nc5cc(C(F)(F)F)ccc5[nH]4)cc3)cc2)cc1 | 273 nM
N#Cc1cccc(C(=O)NC2CCN(CCCCCNC(=O)/C=C/c3ccc(Cl)c(Cl)c3)CC2)c1 | 876 nM
OCC(c1ccccc1)n1c(COc2ccc(Cl)cc2)nc2c(OCCCN3CCCCC3)cccc21 (stereo not drawn) | 916 nM
Cc1cc(N)c2cc(NC(=O)CCC(=O)Nc3ccc4nc(C)cc(N)c4c3)ccc2n1 | 954 nM
COc1ccc(C(=O)NC(c2ccc(Cl)cc2Cl)c2cc(Cl)c3cccnc3c2O)cc1 (stereo not drawn) | 499 nM
CCCCCNC(=N)N/N=C/c1c[nH]c2ccc(OC)cc12 | 955 nM
CCOc1ccccc1C1C(C(=O)C(C)(C)C)N2c3ccc(Br)cc3C=CC2C12C(=O)c1ccccc1C2=O (stereo not drawn) | 853 nM
CC(CN(C)C)C(=O)Nc1cccc(-c2ccc(-c3nc4ccccc4[nH]3)s2)c1 (stereo not drawn) | 743 nM
NCC1CCCN1Cc1ccc(-c2ccc(-c3nc4cc(F)ccc4[nH]3)cc2)cc1 (stereo not drawn) | 926 nM
CCc1ccc(C(=O)Nc2cccc(CN3CCCN(Cc4ccc(O)cc4)CC3)c2)cc1 | 1030 nM
CC(=O)Nc1cccc(CNCc2ccc(-c3cnc(N4CCCC(c5ccccc5)C4)nc3)cc2)c1 (stereo not drawn) | 1190 nM
O=C(c1cccc(-c2cccc(-c3nc4cc(C(F)(F)F)ccc4[nH]3)c2)c1)N1CCCCC1CN1CCC(O)C1 (stereo not drawn) | 279 nM
COc1ccc2nccc(C(=O)NC3CCC(CCN4CCc5cc(C#N)ccc5C4)CC3)c2c1 (stereo not drawn) | 1160 nM
Cc1cc(OCCCN2CCC(NS(=O)(=O)c3cc(Br)c(Cl)s3)CC2)c2ccccc2n1 | 851 nM
CC(C)(CNC(=O)C1CCN(Cc2ccc(Cl)cc2)CC1)c1nc(-c2ccc(Cl)c(O)c2)c(-c2ccncc2)[nH]1 | 623 nM
COc1ccc2ncc(F)c(CCN3CCC(CNCc4cccc5c4OCO5)CC3)c2n1 | 934 nM
CCc1ccc(CN2CCC(CNC(=O)c3cc(-c4cccc(Cl)c4)cs3)C2)cc1 (stereo not drawn) | 1110 nM
